# “And” between values parts separate entries of the source, which are not always exact repeats. Identical values can stand only once. “Also recorded” adds a separate entry of the source. Counter-ions that a name gives are not always drawn. Like-named read-outs stand apart in the source and are kept apart here.
# Experiments:
# [1] = test system: EBOV/Kik (Ebola virus Kikwit variant); assay type: cell-based
# [2] = test system: EBOV/Mak (Ebola virus Makona variant); assay type: cell-based
# EBOV-eGFP [3] = assay type: cell-based, Ebola virus
# [4] = test system: Vero E6, Hep G2, HeLa, Huh 7 cells
# [5] = test system: EBOV/Kik (Ebola virus Kikwit variant); conditions: cited from earlier work
# [6] = both, Hartley, guinea pig, in vivo, po, 60 mg/kg
# EBOV-eGFP [7] = conditions: cited from earlier work
# Ebola virus disease = conditions: human, in vivo; cited from earlier work
# in vivo = conditions: Hartley, guinea pig, po, 60 mg/kg; for AUC(0-inf): AUCinf (h·ng/ml); for AUC(0-t): AUClast (h·ng/ml); for Cmax: Cmax (ng/ml)
compound,measurement,setting,value
Nc1ccn([C@@H]2CS[C@H](CO)O2)c(=O)n1 [Lamivudine],antiviral activity against EBOV/Kik,[1],no detectable antiviral activity
same,IC50,[1]; read-out: IC50,> 320 µM
same,anti-EBOV activity,[2],No significant anti-EBOV activity
same,antiviral activity against EBOV/Mak,[2],did not show antiviral activity; also recorded: did not demonstrate any antiviral activity
same,antiviral activity against EBOV/Mak infection in MDMs,[2],did not demonstrate any antiviral activity
same,antiviral activity with extended drug pre-treatment,[2],did not improve
same,viral inhibition (maximum achieved),[2]; 320 µM,≤ 30%
same,IC50,[2]; read-out: IC50,> 320 µM
same,anti-EBOV activity against EBOV-eGFP,EBOV-eGFP [3],None of these compounds showed any anti-EBOV activity
same,cytotoxicity,[4],minimal cytotoxicity
same,IC50,[5],> 320 µM
same,AUCinf higher in male compared with female guinea pigs,[6],about 34%
same,time of small second peak of plasma concentration,[6],4 to 6 h
same,IC25,EBOV-eGFP [7],43.13 µM
same,inhibition of viral replication (maximum),EBOV-eGFP [7],≤ 45%
same,patients successfully treated,Ebola virus disease,13 out of 15
same,Tmax,"in vivo; both, time to reach peak plasma concentrations",≤ 1 h
same,AUC(0-inf),in vivo; female,12600 ng·h/mL
same,AUC(0-t),in vivo; female,14600 ng·h/mL
same,Cmax,in vivo; female,4110 ng/mL
same,Tmax,"in vivo; female, Tmax (hr)",1 h
same,AUC(0-inf),in vivo; male,16800 ng·h/mL
same,AUC(0-t),in vivo; male,15500 ng·h/mL
same,Cmax,in vivo; male,4560 ng/mL
same,Tmax,"in vivo; male, Tmax (hr)",1 h
"CN(C)CCOc1ccc(/C(=C(/CCCl)c2ccccc2)c2ccccc2)cc1 [Toremifene, Toremifene citrate]",IC50,[1]; read-out: IC50s (range over cell lines),2.2 to 9.9 µM
same,antiviral activity against EBOV/Mak,[2],strong antiviral activity
same,IC50,[2]; read-out: IC50,1.2 ± 0.1 µM
same,IC50,[2]; read-out: IC50s (range) in MDMs,2.1 to 4.5 µM
same,doses at which cytotoxicity increased,human MDMs,≥ 10 µM
same,IC50,[5],~25 µM and 18.3 µM
Cc1cn([C@H]2C[C@H](N=[N+]=[N-])[C@@H](CO)O2)c(=O)[nH]c1=O [Zidovudine],antiviral activity against EBOV/Kik,[1],no detectable antiviral activity
same,IC50,[1]; read-out: IC50,> 320 µM
same,antiviral activity against EBOV/Mak,[2],did not show antiviral activity
same,antiviral activity against EBOV/Mak infection in MDMs,[2],did not demonstrate any antiviral activity
same,anti-EBOV activity against EBOV-eGFP,EBOV-eGFP [3],None of these compounds showed any anti-EBOV activity
same,cytotoxicity,[4],minimal cytotoxicity
same,IC50,[5],> 320 µM
